Consider three molecules from patent publication US20250206754A1, “PAN-CHEMOKINE ANTAGONISTS FOR USE IN TREATING CANCER AND IMMUNE DISORDERS” ("Micar Innovation" LTD., priority 2022, published 2025).

Several values for one entry are separate records, joined by “and”; a condition that tells them apart may be missing. Equal entries are not always repeated. Where two headings read alike, the source gives them in different places.

Assay [1] deals with T1, CCR7 (Homo sapiens, UniProt P32248).
T1 construct: expressed in transfected cells
T1 sequence (P32248 25-378): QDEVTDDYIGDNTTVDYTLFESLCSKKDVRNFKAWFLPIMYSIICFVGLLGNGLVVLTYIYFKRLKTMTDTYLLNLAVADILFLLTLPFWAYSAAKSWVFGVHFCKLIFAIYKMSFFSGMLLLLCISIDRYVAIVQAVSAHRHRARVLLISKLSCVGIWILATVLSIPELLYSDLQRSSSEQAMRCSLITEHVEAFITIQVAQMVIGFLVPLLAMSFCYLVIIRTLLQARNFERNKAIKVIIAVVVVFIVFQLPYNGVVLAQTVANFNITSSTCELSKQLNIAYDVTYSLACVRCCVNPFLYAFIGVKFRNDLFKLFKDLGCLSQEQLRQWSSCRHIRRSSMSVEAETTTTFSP
Conditions: β-arrestin related assay, CCR7, reference [2]; cited from earlier work.

Assay [2] deals with T1, CCR7. The assay can be described thus: Ca^2+ mobilization assay, CCR7. As to conditions: Ca^2+ mobilization assay, CCR7. It is filed as cell-based. The protocol: Selected compounds were initially sent for both antagonist and agonist TANGO β-arrestin assays. […] Replacement only on the amide group with CN led to strong activity decrease in β-arrestin assay: only 31% activity at about 30 μM and similar one at 100 μM (Table 1). Five more derivatives with replaced amide group were also tested in parallel by Ca^2+ mobilization assay and they all were not active up to the tested concertation of 100 μM.
To examine the colloid aggregation possibility a β-lactamase enzymatic activity counterscreen assay was performed, which is the commonly adopted tool for detection of such properties of the compounds.

The next assay has as its target T2, CCR1 (Homo sapiens, UniProt P32246).
T2 sequence (P32246 1-355): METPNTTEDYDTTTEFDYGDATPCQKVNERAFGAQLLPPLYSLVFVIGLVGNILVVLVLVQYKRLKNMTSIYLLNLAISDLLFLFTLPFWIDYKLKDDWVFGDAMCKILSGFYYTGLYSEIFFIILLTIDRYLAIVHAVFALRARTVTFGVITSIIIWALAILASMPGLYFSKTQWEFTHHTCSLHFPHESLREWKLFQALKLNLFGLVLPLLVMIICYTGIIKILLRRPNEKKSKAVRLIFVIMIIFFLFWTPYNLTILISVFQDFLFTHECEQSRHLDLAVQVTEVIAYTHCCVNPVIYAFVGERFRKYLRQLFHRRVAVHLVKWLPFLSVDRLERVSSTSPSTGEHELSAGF
The assay can be described thus: β-arrestin selectivity assay, CCR1. It is filed as cell-based.

The target of the next assay is CCR2 (Homo sapiens, UniProt P41597). The assay can be described thus: β-arrestin selectivity assay, CCR2. It is filed as cell-based.
Chain of CCR2 (P41597 whole entry): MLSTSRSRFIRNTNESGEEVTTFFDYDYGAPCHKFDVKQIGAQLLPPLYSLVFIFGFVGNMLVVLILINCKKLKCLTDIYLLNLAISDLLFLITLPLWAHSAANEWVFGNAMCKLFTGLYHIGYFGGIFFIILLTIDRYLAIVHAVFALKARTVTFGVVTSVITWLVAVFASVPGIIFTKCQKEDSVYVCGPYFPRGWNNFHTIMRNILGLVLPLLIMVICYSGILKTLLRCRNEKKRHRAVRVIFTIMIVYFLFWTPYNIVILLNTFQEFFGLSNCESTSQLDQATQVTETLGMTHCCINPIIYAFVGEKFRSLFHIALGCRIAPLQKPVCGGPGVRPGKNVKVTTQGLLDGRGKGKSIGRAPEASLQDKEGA
In the next assay the target is T3, CCR3 (Homo sapiens, UniProt P51677).
T3 sequence (P51677 1-355): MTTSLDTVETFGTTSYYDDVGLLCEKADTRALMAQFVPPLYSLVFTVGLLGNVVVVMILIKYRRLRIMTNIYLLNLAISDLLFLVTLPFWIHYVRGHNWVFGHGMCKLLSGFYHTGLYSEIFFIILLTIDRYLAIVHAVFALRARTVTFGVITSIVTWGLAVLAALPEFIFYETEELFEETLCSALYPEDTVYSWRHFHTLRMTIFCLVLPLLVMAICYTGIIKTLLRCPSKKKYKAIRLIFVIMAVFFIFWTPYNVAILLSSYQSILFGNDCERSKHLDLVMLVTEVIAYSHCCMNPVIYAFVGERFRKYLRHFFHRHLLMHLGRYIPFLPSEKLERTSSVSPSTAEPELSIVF
The assay can be described thus: β-arrestin selectivity assay, CCR3. It is filed as cell-based.

The next assay concerns the target CCR5 (Homo sapiens, UniProt P51681). The experiment in a line: β-arrestin selectivity assay, CCR5. The assay is classed as cell-based.
For a further assay, the target named is CXCR4 (Homo sapiens, UniProt P61073). The experiment in a line: Ca^2+ mobilization assay, CXCR4. The assay is classed as cell-based. The method, then: MIC5023. The synthesis path of MIC5023 is shown on Scheme 1. It consists of 5 chemical transformation in order the final product to be obtained. Two chlorine atoms were added to aromatic rings of MIC5022, and also one methyl group, which makes MIC5023 a close derivative of MIC5022. […] The Ca^2+ mobilization assays retrieved a value of IC50 of about 30 μM and similar for CXCR4; i.e. less than those observed for Hit 1 (MIC5022). MIC5024. The synthesis path of MIC5024 is shown on Scheme 2. It consists of 4 chemical transformation in order the final product to be obtained. The difference between MIC5023 and MIC5024 is only one methyl group introduced in the central five member aromatic ring but it decreased the β-arrestin activity of MIC5024 to CCR1, CCR2 and CCR3 below 30 μM. […] The Ca^2+ mobilization assays retrieved values of IC50>50 μM for CCR7 and CXCR4. Thus, it became evident that this methyl substitution is less sensitive only to CCR3 and CCR5.
Chain of CXCR4 (P61073 whole entry): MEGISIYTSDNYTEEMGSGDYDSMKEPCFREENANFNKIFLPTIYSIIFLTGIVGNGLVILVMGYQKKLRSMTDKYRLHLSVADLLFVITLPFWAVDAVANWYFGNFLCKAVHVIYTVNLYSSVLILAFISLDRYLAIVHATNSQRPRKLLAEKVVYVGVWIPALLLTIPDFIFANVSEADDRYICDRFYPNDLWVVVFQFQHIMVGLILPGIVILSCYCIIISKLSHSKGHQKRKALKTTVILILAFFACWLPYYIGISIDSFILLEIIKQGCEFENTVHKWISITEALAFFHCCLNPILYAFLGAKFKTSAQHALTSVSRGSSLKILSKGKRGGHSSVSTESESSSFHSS

Chain of CCR5 (P51681 whole entry): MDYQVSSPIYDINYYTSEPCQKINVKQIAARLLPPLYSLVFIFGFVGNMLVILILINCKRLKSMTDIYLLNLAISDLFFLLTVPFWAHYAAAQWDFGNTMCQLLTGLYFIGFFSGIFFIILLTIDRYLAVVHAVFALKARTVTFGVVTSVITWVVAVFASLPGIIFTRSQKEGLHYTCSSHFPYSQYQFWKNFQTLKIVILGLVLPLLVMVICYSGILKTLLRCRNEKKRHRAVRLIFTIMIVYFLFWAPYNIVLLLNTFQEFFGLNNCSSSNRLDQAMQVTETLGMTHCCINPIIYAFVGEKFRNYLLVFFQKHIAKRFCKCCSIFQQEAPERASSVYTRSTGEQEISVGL

What is called IC50 is the midpoint of a concentration-inhibition curve. On to Cosaline, for which, at CCR7 [1], the IC50 was 0.2 µM.

Take `Cc1nc(Oc2c(Cl)cccc2C(N)=O)c2c(C)c(-c3ccccc3Cl)sc2n1` [MIC5023, 3-chloro-2-{[6-(2-chlorophenyl)-2,5-dimethylthieno[2,3-d]pyrimidin-4-yl]oxy}benzamide]: the IC50 on CCR7 [2] was approximately 30 µM; at CCR1 it was more than 30 µM; against CCR2 it was 31.5 µM; against CCR3, more than 9.5 µM; at CCR5, 2.1 µM; on CXCR4, approximately 30 µM.

As to `Cc1nc(Oc2c(Cl)cccc2C(N)=O)c2cc(-c3ccccc3Cl)sc2n1` [MIC5024, 3-chloro-2-{[6-(2-chlorophenyl)-2-methylthieno[2,3-d]pyrimidin-4-yl]oxy}benzamide], the IC50 was more than 50 µM at CCR7 [2]; less than 30 µM against CCR1; less than 30 µM against CCR2; < 30 µM and 7.2 µM against CCR3; 7.2 µM against CCR5; more than 50 µM at CXCR4.
